In PubChem BioAssay (NCI):
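96-well plates; 48 h exposure; 5 concentrations. Endpoints by linear interpolation between flanking doses. Not reached: highest tested concentration assigned. TGI: total growth inhibition.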

Experiments:
Assay in all cases: NCI tumour cell line growth inhibition, 48 h
ACHN renal = tested on: ACHN renal
DU-145 prostate = tested on: DU-145 prostate
HCT-15 colon = tested on: HCT-15 colon
LOX IMVI melanoma = tested on: LOX IMVI melanoma
NCI-H226 lung = tested on: NCI-H226 lung
NCI-H23 lung = tested on: NCI-H23 lung
OVCAR-3 ovarian = tested on: OVCAR-3 ovarian
RPMI-8226 leukemia = tested on: RPMI-8226 leukemia
SN12C renal = tested on: SN12C renal
SW-620 colon = tested on: SW-620 colon

Row | Compound | TGI (ACHN renal) | TGI (DU-145 prostate) | TGI (HCT-15 colon) | TGI (LOX IMVI melanoma) | TGI (NCI-H226 lung) | TGI (NCI-H23 lung) | TGI (OVCAR-3 ovarian) | TGI (RPMI-8226 leukemia) | TGI (SN12C renal) | TGI (SW-620 colon)
1 | O=c1c2ccccc2oc2c1ccc1ncccc12 | 23.1 µM | 59.5 µM | > 100 µM | 43.8 µM | 38.9 µM | > 100 µM | 89.6 µM | > 100 µM | > 100 µM | 42 µM
2 | Nn1c(Cc2ccc(Cl)cc2)n[nH]c1=O | > 100 µM | > 100 µM | > 100 µM | > 100 µM | > 100 µM | > 100 µM | > 100 µM | > 100 µM | > 100 µM | > 100 µM
3 | Oc1ccc2c(c1)-c1c(c3cc(O)ccc3n1CCN1CCOCC1)CC2 | > 100 µM | > 100 µM | 45.4 µM | 35.7 µM | 41.4 µM | 73.5 µM | 61.8 µM | > 100 µM | > 100 µM | 71.2 µM
4 | COc1ccc(/C=N\N2CC(=O)N3C4C=CC(CC4)N3C2=O)cc1 (stereo not given) | > 100 µM | > 100 µM | > 100 µM | > 100 µM | > 100 µM | > 100 µM | > 100 µM | > 100 µM | > 100 µM | > 100 µM
5 | C[C@]12CC[C@H]3[C@@H](CCC4=CC(=O)C=C[C@@]43O)[C@@H]1CCC2=O | > 100 µM | > 100 µM | > 100 µM | > 100 µM | > 100 µM | > 100 µM | > 100 µM | > 100 µM | > 100 µM | > 100 µM
6 | C/C(O)=C/c1nc2ccccc2nc1/C=C(/C)O | 47.7 µM | 70.4 µM | > 100 µM | 56.4 µM | 61.3 µM | > 100 µM | 40.7 µM | 56.5 µM | 97.7 µM | > 100 µM
7 | CC(C)(C)c1cc(C(O)(C(=O)O)C(=O)O)cc(C(C)(C)C)c1O | > 100 µM | > 100 µM | > 100 µM | > 100 µM | > 100 µM | > 100 µM | > 100 µM | > 100 µM | > 100 µM | > 100 µM
8 | CCOC(=O)C1=CN=C2C(=O)N(c3ccccc3)N(C)C2(C)C1=N (stereo not given) | > 100 µM | > 100 µM | > 100 µM | > 100 µM | > 100 µM | > 100 µM | > 100 µM | > 100 µM | > 100 µM | > 100 µM
9 | CCCC1NC(C#N)(C#N)C(CCC)NC1(C#N)C#N (stereo not given) | > 100 µM | > 43.1 µM | > 39.2 µM | 31.4 µM | 81.1 µM | > 51.3 µM | 29.1 µM | 0.943 µM | > 37 µM | > 100 µM
10 | O=S(=O)(c1ccccc1)n1c(C(O)c2ccncc2)cc2ccccc21 (stereo not given) | > 100 µM | > 100 µM | > 100 µM | > 100 µM | > 100 µM | > 100 µM | > 100 µM | > 100 µM | > 100 µM | > 100 µM
11 | [O-][n+]1onc2c3nn(-c4ccccc4)nc3ccc21 | > 100 µM | 57.8 µM | > 100 µM | > 58.3 µM | > 100 µM | > 100 µM | 72 µM | 53.3 µM | > 100 µM | > 100 µM
12 | Cc1c(-c2ccccc2)c(C#N)c2nnn(-c3ccccc3)c(=O)n12 | > 100 µM | > 100 µM | > 100 µM | > 100 µM | > 100 µM | > 100 µM | > 100 µM | > 100 µM | > 100 µM | > 100 µM
13 | O=C(NCC1Nc2ccncc2S(=O)(=O)N1)c1ccc(Br)cc1 (stereo not given) | > 100 µM | > 100 µM | > 100 µM | > 100 µM | > 100 µM | > 100 µM | > 100 µM | > 100 µM | > 100 µM | > 100 µM
14 | c1ccc2c(c1)c1c(n2CCOCCN2CCCCC2)CCCC1 | 27.7 µM | 32.6 µM | 27.7 µM | 28.3 µM | 38.5 µM | 37.4 µM | 21.7 µM | 28 µM | 27.4 µM | 35.7 µM
15 | CCOC(=O)c1ccc(-c2cc(C)[nH]n2)[nH]1 | > 100 µM | > 100 µM | > 100 µM | > 100 µM | > 100 µM | > 100 µM | > 100 µM | > 100 µM | > 100 µM | > 100 µM
16 | O=C1NN=C(c2ccc(Cl)cc2)CC1C1C(=O)N(c2ccccc2)N=C1c1ccccc1 (stereo not given) | > 100 µM | > 100 µM | > 100 µM | 45.9 µM | 91.8 µM | 62.8 µM | 72.9 µM | > 100 µM | > 100 µM | > 100 µM
17 | COc1cc(C2c3cc4c(cc3C(O)C3CCC(=O)N23)OCO4)cc(OC)c1OC (stereo not given) | > 100 µM | > 100 µM | > 100 µM | > 100 µM | 79.3 µM | > 100 µM | > 100 µM | > 100 µM | > 100 µM | > 100 µM
18 | CC1(C)C2CCC1(CS(=O)(=O)Nc1ccccc1)C(=O)C2 (stereo not given) | > 100 µM | > 100 µM | > 100 µM | > 100 µM | > 100 µM | > 100 µM | > 100 µM | > 100 µM | > 100 µM | > 100 µM
19 | Cc1cc(S(=O)(=O)Nc2nc3ccsc3c(=O)n2N)c(S)cc1Cl | > 100 µM | > 100 µM | > 100 µM | > 100 µM | 88 µM | > 100 µM | > 100 µM | > 100 µM | > 100 µM | > 100 µM
